Each molecule was assayed against T1, rat CB-1 receptor (Rattus norvegicus, UniProt P20272) (assay: rat cannabinoid-1 receptor (CB1R) binding affinity assay). Conditions: not given.
T1 construct: The tissue obtained from the brain of SD rats was homogenized; from tissue; host or cells: SD rat brain membrane homogenate
Method: The tissue obtained from the brain of SD rats was homogenized with a Dounce homogenate system in TME(50 mM Tris, 3 mM MgCl2 and 1 mM EDTA, pH 7.4) at 4° C., and the homogenate was centrifuged at 48,000 g for 30 min. at 4° C. The pellet was resuspended in 5 ml of TME and the suspension was divided into aliquots and stored at −70° C. until its use in the following assay.
The tissue concentrations were determined by Bradford protein analysis, and 148 μl of brain tissue of the required concentration was added to the plate. The plate was covered and placed in a 30° C. incubator for 60 min, and then transformed on GF/B filtermat pretreated in polyethylenimine (PEI) using a cell harvester. Each filter was washed five times and dried at 60° C. for 1 hr. Then, the degree of radioactivity retained by the filter was measured using Wallac Microbeta™ (PerkinElmer Life Sciences, Inc., Massachusetts, U.S.A.) and the activity of the compound for inhibiting CB1 receptor was determined therefrom.

T1 sequence (P20272 whole entry): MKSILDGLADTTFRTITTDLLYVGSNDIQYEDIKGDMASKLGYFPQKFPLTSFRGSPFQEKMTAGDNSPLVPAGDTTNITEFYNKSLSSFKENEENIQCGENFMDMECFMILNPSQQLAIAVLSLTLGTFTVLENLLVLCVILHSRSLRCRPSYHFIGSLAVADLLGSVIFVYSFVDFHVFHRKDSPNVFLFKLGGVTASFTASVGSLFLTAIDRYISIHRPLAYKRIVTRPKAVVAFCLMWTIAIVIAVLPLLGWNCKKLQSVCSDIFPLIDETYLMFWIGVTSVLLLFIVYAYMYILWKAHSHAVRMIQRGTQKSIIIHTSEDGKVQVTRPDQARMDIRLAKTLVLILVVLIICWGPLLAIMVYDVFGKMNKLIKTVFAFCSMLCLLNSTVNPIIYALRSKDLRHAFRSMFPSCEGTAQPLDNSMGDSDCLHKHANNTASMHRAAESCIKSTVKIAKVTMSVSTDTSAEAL

`CS(=O)(=O)c1c(-c2nnc(C3(C(F)(F)F)CCC3)o2)nn(-c2ccc(Cl)cc2Cl)c1-c1ccc(Cl)cc1` [Example 82, 2-(5-(4-chlorophenyl)-1-(2,4-dichlorophenyl)-4-(methylsulfonyl)-1H-pyrazol-3-yl)-5-(1-(trifluoromethyl)cyclobutyl)-1,3,4-oxadiazole] was tested. Which IC50 did it give?
Its IC50 is 6.79 nM.

Same assay, conditions: [3H]CP-55940 radioligand, SD rat brain tissue homogenate, 30° C., 60 min; read-out: IC50

Which IC50 does the source give for `C[S+]([O-])c1c(-c2nnc(C3(c4ccc(Cl)cc4)CC3)s2)nn(-c2ccc(Cl)cc2Cl)c1-c1ccc(Cl)cc1` (stereo not shown) [Example 63, 2-(5-(4-chlorophenyl)-1-(2,4-dichlorophenyl)-4-(methylsulfinyl)-1H-pyrazol-3-yl)-5-(1-(4-chlorophenyl)cyclopropyl)-1,3,4-thiadiazole] here?
Its IC50 is 11.8 nM.

`C[S+]([O-])c1c(-c2nnc(C3(C(F)(F)F)CCC3)s2)nn(-c2ccccc2Cl)c1-c1ccc(Cl)cc1` (stereo not shown) [Example 66, 2-(1-(2-chlorophenyl)-5-(4-chlorophenyl)-4-(methylsulfinyl)-1H-pyrazol-3-yl)-5-(1-(trifluoromethyl)cyclobutyl)-1,3,4-thiadiazole] was tested. Which IC50 did it give?
Its IC50 is 3.4 nM.

With `C[S+]([O-])c1c(-c2nnc(C(C)(C)C)s2)nn(-c2ccccc2Cl)c1-c1ccc(Br)cc1` (stereo not shown) [Example 72, 2-(5-(4-bromophenyl)-1-(2-chlorophenyl)-4-(methylsulfinyl)-1H-pyrazol-3-yl)-5-tert-butyl-1,3,4-thiadiazole] as the molecule, how does the IC50 read?
Its IC50 is 7.97 nM.

Which IC50 does the source give for `C[S+]([O-])c1c(-c2nnc(C3(C(F)(F)F)CC3)s2)nn(-c2ccccc2Cl)c1-c1ccc(Br)cc1` (stereo not shown) [Example 73, 2-(5-(4-bromophenyl)-1-(2-chlorophenyl)-4-(methylsulfinyl)-1H-pyrazol-3-yl)-5-(1-(trifluoromethyl)cyclopropyl)-1,3,4-thiadiazole] here?
Its IC50 is 6.08 nM.

With `C[S+]([O-])c1c(-c2nnc(C3(C(F)(F)F)CCC3)s2)nn(-c2ccccc2Cl)c1-c1ccc(Br)cc1` (stereo not shown) [Example 74, 2-(5-(4-bromophenyl)-1-(2-chlorophenyl)-4-(methylsulfinyl)-1H-pyrazol-3-yl)-5-(1-(trifluoromethyl)cyclobutyl)-1,3,4-thiadiazole] as the molecule, how does the IC50 read?
The IC50 was 2.32 nM.

`CC(C)(C)c1nnc(-c2nn(-c3ccc(Cl)cc3Cl)c(-c3ccc(Cl)cc3)c2S(C)(=O)=O)o1` [Example 80, 2-tert-butyl-5-(5-(4-chlorophenyl)-1-(2,4-dichlorophenyl)-4-(methylsulfonyl)-1H-pyrazol-3-yl)-1,3,4-oxadiazole] was tested. Which IC50 did it give?
The IC50 was 15.2 nM.

How did the IC50 turn out when `CS(=O)(=O)c1c(-c2nnc(C3(C(F)(F)F)CC3)o2)nn(-c2ccc(Cl)cc2Cl)c1-c1ccc(Cl)cc1` [Example 81, 2-(5-(4-chlorophenyl)-1-(2,4-dichlorophenyl)-4-(methylsulfonyl)-1H-pyrazol-3-yl)-5-(1-(trifluoromethyl)cyclopropyl)-1,3,4-oxadiazole] was run?
The IC50 was 6.31 nM.

How did the IC50 turn out when `CS(=O)(=O)c1c(-c2nnc(C3(c4ccc(Cl)cc4)CC3)o2)nn(-c2ccc(Cl)cc2Cl)c1-c1ccc(Cl)cc1` [Example 83, 2-(5-(4-chlorophenyl)-1-(2,4-dichlorophenyl)-4-(methylsulfonyl)-1H-pyrazol-3-yl)-5-(1-(4-chlorophenyl)cyclopropyl)-1,3,4-oxadiazole] was run?
Its IC50 is 22 nM.

`CC(C)(C)c1nnc(-c2nn(-c3ccc(Cl)cc3Cl)c(-c3ccc(Br)cc3)c2S(C)(=O)=O)o1` [Example 88, 2-(5-(4-bromophenyl)-1-(2,4-dichlorophenyl)-4-(methylsulfonyl)-1H-pyrazol-3-yl)-5-tert-butyl-1,3,4-oxadiazole] was tested. Which IC50 did it give?
Its IC50 is 14.2 nM.

For `CS(=O)(=O)c1c(-c2nnc(C3(C(F)(F)F)CCC3)o2)nn(-c2ccc(Cl)cc2Cl)c1-c1ccc(Br)cc1` [Example 90, 2-(5-(4-bromophenyl)-1-(2,4-dichlorophenyl)-4-(methylsulfonyl)-1H-pyrazol-3-yl)-5-(1-(trifluoromethyl)cyclobutyl)-1,3,4-oxadiazole], which IC50 is on record?
Its IC50 is 7.34 nM.

With `CC(C)(C)c1nnc(-c2nn(-c3ccccc3Cl)c(-c3ccc(Br)cc3)c2S(C)(=O)=O)o1` [Example 92, 2-(5-(4-bromophenyl)-1-(2-chlorophenyl)-4-(methylsulfonyl)-1H-pyrazol-3-yl)-5-tert-butyl-1,3,4-oxadiazole] as the molecule, how does the IC50 read?
Its IC50 is 8.15 nM.

For `CS(=O)(=O)c1c(-c2nnc(C3(C(F)(F)F)CCC3)o2)nn(-c2ccccc2Cl)c1-c1ccc(Br)cc1` [Example 94, 2-(5-(4-bromophenyl)-1-(2-chlorophenyl)-4-(methylsulfonyl)-1H-pyrazol-3-yl)-5-(1-(trifluoromethyl)cyclobutyl)-1,3,4-oxadiazole], which IC50 is on record?
Its IC50 is 5.21 nM.

Which IC50 does the source give for `CC(C)(C)c1nnc(-c2nn(-c3ccc(Cl)cc3Cl)c(-c3ccc(Cl)cc3)c2S(C)(=O)=O)s1` [Example 100, 2-tert-butyl-5-(5-(4-chlorophenyl)-1-(2,4-dichlorophenyl)-4-(methylsulfonyl)-1H-pyrazol-3-yl)-1,3,4-thiadiazole] here?
Its IC50 is 5.84 nM.

`CS(=O)(=O)c1c(-c2nnc(C3(C(F)(F)F)CC3)s2)nn(-c2ccc(Cl)cc2Cl)c1-c1ccc(Cl)cc1` [Example 101, 2-(5-(4-chlorophenyl)-1-(2,4-dichlorophenyl)-4-(methylsulfonyl)-1H-pyrazol-3-yl)-5-(1-(trifluoromethyl)cyclopropyl)-1,3,4-thiadiazole] was tested. Which IC50 did it give?
Its IC50 is 22 nM.

For `CS(=O)(=O)c1c(-c2nnc(C3(C(F)(F)F)CCC3)s2)nn(-c2ccc(Cl)cc2Cl)c1-c1ccc(Cl)cc1` [Example 102, 2-(5-(4-chlorophenyl)-1-(2,4-dichlorophenyl)-4-(methylsulfonyl)-1H-pyrazol-3-yl)-5-(1-(trifluoromethyl)cyclobutyl)-1,3,4-thiadiazole], which IC50 is on record?
The IC50 was 3.74 nM.

With `CS(=O)(=O)c1c(-c2nnc(C3(c4ccc(Cl)cc4)CC3)s2)nn(-c2ccc(Cl)cc2Cl)c1-c1ccc(Cl)cc1` [Example 103, 2-(5-(4-chlorophenyl)-1-(2,4-dichlorophenyl)-4-(methylsulfonyl)-1H-pyrazol-3-yl)-5-(1-(4-chlorophenyl)cyclopropyl)-1,3,4-thiadiazole] as the molecule, how does the IC50 read?
The IC50 was 4.34 nM.

`CC(C)(C)c1nnc(-c2nn(-c3ccccc3Cl)c(-c3ccc(Cl)cc3)c2S(C)(=O)=O)s1` [Example 104, 2-tert-butyl-5-(1-(2-chlorophenyl)-5-(4-chlorophenyl)-4-(methylsulfonyl)-1H-pyrazol-3-yl)-1,3,4-thiadiazole] was tested. Which IC50 did it give?
Its IC50 is 7.18 nM.

How did the IC50 turn out when `CS(=O)(=O)c1c(-c2nnc(C3(C(F)(F)F)CCC3)s2)nn(-c2ccccc2Cl)c1-c1ccc(Cl)cc1` [Example 106, 2-(1-(2-chlorophenyl)-5-(4-chlorophenyl)-4-(methylsulfonyl)-1H-pyrazol-3-yl)-5-(1-(trifluoromethyl)cyclobutyl)-1,3,4-thiadiazole] was run?
Its IC50 is 0.87 nM.

How did the IC50 turn out when `CS(=O)(=O)c1c(-c2nnc(C3(C(F)(F)F)CCC3)s2)nn(-c2ccc(Cl)cc2Cl)c1-c1ccc(Br)cc1` [Example 110, 2-(5-(4-bromophenyl)-1-(2,4-dichlorophenyl)-4-(methylsulfonyl)-1H-pyrazol-3-yl)-5-(1-(trifluoromethyl)cyclobutyl)-1,3,4-thiadiazole] was run?
Its IC50 is 3.64 nM.

For `CC(C)(C)c1nnc(-c2nn(-c3ccccc3Cl)c(-c3ccc(Br)cc3)c2S(C)(=O)=O)s1` [Example 112, 2-(5-(4-bromophenyl)-1-(2-chlorophenyl)-4-(methylsulfonyl)-1H-pyrazol-3-yl)-5-tert-butyl-1,3,4-thiadiazole], which IC50 is on record?
The IC50 was 3.01 nM.

For `CS(=O)(=O)c1c(-c2nnc(C3(C(F)(F)F)CC3)s2)nn(-c2ccccc2Cl)c1-c1ccc(Br)cc1` [Example 113, 2-(5-(4-bromophenyl)-1-(2-chlorophenyl)-4-(methylsulfonyl)-1H-pyrazol-3-yl)-5-(1-(trifluoromethyl)cyclopropyl)-1,3,4-thiadiazole], which IC50 is on record?
The IC50 was 2.51 nM.

Which IC50 does the source give for `CS(=O)(=O)c1c(-c2nnc(C3(C(F)(F)F)CCC3)s2)nn(-c2ccccc2Cl)c1-c1ccc(Br)cc1` [Example 114, 2-(5-(4-bromophenyl)-1-(2-chlorophenyl)-4-(methylsulfonyl)-1H-pyrazol-3-yl)-5-(1-(trifluoromethyl)cyclobutyl)-1,3,4-thiadiazole] here?
Its IC50 is 1.08 nM.

`CS(=O)(=O)c1c(-c2nnc(C3(c4ccc(Cl)cc4)CC3)s2)nn(-c2ccccc2Cl)c1-c1ccc(Br)cc1` [Example 115, 2-(5-(4-bromophenyl)-1-(2-chlorophenyl)-4-(methylsulfonyl)-1H-pyrazol-3-yl)-5-(1-(4-chlorophenyl)cyclopropyl)-1,3,4-thiadiazole] was tested. Which IC50 did it give?
The IC50 was 1.4 nM.

Which IC50 does the source give for `CCS(=O)(=O)c1c(-c2nnc(C3(c4ccc(Cl)cc4)CC3)s2)nn(-c2ccc(Cl)cc2Cl)c1-c1ccc(Cl)cc1` [Example 119, 2-(5-(4-chlorophenyl)-1-(2,4-dichlorophenyl)-4-(ethylsulfonyl)-1H-pyrazol-3-yl)-5-(1-(4-chlorophenyl)cyclopropyl)-1,3,4-thiadiazole] here?
The IC50 was 2.06 nM.
